Data set [1] is described as follows: in vivo. The note with it: male, beagle, dog, iv, 2 mg/kg.
Data set [2] is described as follows: in vivo. The following applies: male, beagle, dog, iv, 2 mg/kg. This is another data set of the same source.

On to `CC(=O)O[C@H]1C(=O)[C@@]2(C)[C@H]([C@H](OC(=O)c3ccccc3)[C@]3(O)C[C@H](OC(=O)[C@H](O)[C@@H](NC(=O)c4ccccc4)c4ccccc4)C(C)=C1C3(C)C)[C@]1(OC(C)=O)CO[C@@H]1C[C@@H]2O` [Paclitaxel, paclitaxel], for which, in “in vivo [1]”, the AUC(0-inf) (as a rule, the area under the concentration-time curve extrapolated to infinity) was determined as 768 ng·h/mL; the AUC(0-t) (in general, the area under the concentration-time curve up to a stated or last time point) came to 701 ng·h/mL; the maximum concentration (Cmax) (in general, the peak of the concentration-time curve) worked out at 811 ng/mL; the MRT last (usually a mean duration of stay, worked out from the concentration-time curve) is 5.26 h. Also, in “in vivo [1]”, the Tmax (usually the time from dosing to the highest level) is 0 h; the Vd (commonly a proportionality between amount in the body and measured concentration, not a real space) came out at 2.1 L/kg; the clearance (commonly a measure of how efficiently the substance is removed, as volume per time) is 44.3 mL/min/kg; the half-life – broadly, the time in which the quantity being followed falls by half – is 454 min. For the same compound, in the data set “in vivo [2]”, the AUC(0-inf) is 1950 ng·h/mL; the AUC(0-t) is 1840 ng·h/mL; the Cmax was determined as 1690 ng/mL; the MRT (in general, the average time that molecules of a dose stay in the body) came to 3.67 h. In the data set “in vivo [2]”, the Tmax amounted to 1 h, the Vd came to 6.59 L/kg and the clearance was 19.3 mL/min/kg.
